Columns and labels:
Type in all cases: in vivo
[1] = system: barnyardgrass; assay: Test Example 1: herbicidal effects in preemergence treatment under submerged conditions; conditions: dose 2.52 g/a
Source text: (§1) Test on the Herbicidal Effects in Preemergence Treatment on Weeds Under Submerged Conditions
(§2) Alluvial soil was put in 1/30000-are styrol cups and admixed with water so that it was submerged at a depth of 4 cm. In each cup, seeds of barnyardgrass, bulrush and ducksalad were sown together, and rice seedlings at the 2.5-leaf stage were transplanted. On the same day as the seeding, emulsifiable concentrates containing compounds of the present invention formulated in accordance with Formulation Example 2 were applied to the water surfaces at predetermined doses after diluted with water. The cups were placed in a greenhouse at 25 to 30° C. to grow the plants. Three weeks after the application, the herbicidal effects against various plants were determined on the following evaluation scale.
(§3) 5 mortality of 90% or above (nearly complete death)
(§4) 4 mortality of at least 70% and less than 90%
(§5) 3 mortality of at least 40% and less than 70%
(§6) 2 mortality of at least 20% and less than 40%
(§7) 1 mortality of at least 5% and less than 20%
(§8) 0 mortality of less than 5% (almost ineffective)
(§9) A: barnyardgrass, B: bulrush, C: ducksalad, D: large crabgrass, E: giant foxtail, F: wild oat, G: water foxtail, H: Italian ryegrass, I: velvetleaf, J: common ragweed, K: redroot pigweed, L: common lambsquater, M: posumbu knotweed, N: common chickweed, O: beadstraw, a: transplanted rice, b: corn, c: soybean, d: direct-seeded rice, e: wheat, f: sugar beet.
(§10) The doses (g/a) represents the amounts in g per 1 are (a) applied after adjustment of concentration adjustment.

[2] = system: bulrush; assay: as above; conditions: dose 2.52 g/a
Source text: as §1, §2, §3, §4, §5, §6, §7, §8, §9, §10

[3] = system: ducksalad; assay: as above; conditions: dose 2.52 g/a
Source text: as §1, §2, §3, §4, §5, §6, §7, §8, §9, §10

[4] = system: transplanted rice; assay: Test Example 1: preemergence treatment under submerged conditions, effect on crop; conditions: dose 2.52 g/a
Source text: as §1, §2, §3, §4, §5, §6, §7, §8, §9, §10

[5] = system: barnyardgrass; assay: Test Example 2: herbicidal effects during the vegetation period under submerged conditions; conditions: treatment during the vegetation period under submerged conditions; dose 2.52 g/a
Protocol: (§11) Test on the Herbicidal Effects on Weeds During the Vegetation Period Under Submerged Conditions
(§12) Alluvial soil was put in 1/30000-are styrol cups and admixed with water so that it was submerged at a depth of 4 cm. In each cup, seeds of barnyardgrass, bulrush and ducksalad were sown together, and the cups were placed in a greenhouse at 25 to 30° C. to grow the plants. When the barnyardgrass, bulrush and ducksalad reached the 1- or 2-leaf stage, emulsifiable concentrates containing compounds of the present invention formulated in accordance with Formulation Example 2 were applied to the water surfaces at predetermined doses after diluted with water. Three weeks after the application, the herbicidal effects against various plants were determined on the same evaluation scale as in Test Example 1.
as §9, §10

[6] = system: bulrush; assay: as above; conditions: treatment during the vegetation period under submerged conditions; dose 2.52 g/a
Protocol: as §11, §12, §9, §10

[7] = system: ducksalad; assay: as above; conditions: treatment during the vegetation period under submerged conditions; dose 2.52 g/a
Protocol: as §11, §12, §9, §10

[8] = system: Italian ryegrass; assay: Test Example 3: herbicidal effects in soil treatment; conditions: dose 3.2 g/a
Source text: (§13) Test on the Herbicidal Effects in Soil Treatment
(§14) Sterilized diluvial soil was put in plastic boxes with a length of 21 cm, a width of 13 cm and a depth of 7 cm, and seeds of barnyardgrass, large crabgrass, giant foxtail, wild oat, blackgrass, velvetleaf, common ragweed, redroot pigweed, common lambsquater, posumbu knotweed, common chickweed corn, soybean, rice, wheat and sugar beet were sown in spots and covered with an about 1.5 cm-thick soil layer. Emulsifiable concentrates containing compounds of the present invention formulated in accordance with Formulation Example 2 were uniformly applied to the soil surfaces at predetermined doses through a small sprayer after dilute with water. Three weeks after the application, the herbicidal effects against various plants were determined on the same evaluation scale as in Test Example 1.
as §9, §10

[9] = system: barnyardgrass; assay: as above; conditions: dose 3.2 g/a
Source text: as §13, §14, §9, §10

[10] = system: common chickweed; assay: as above; conditions: dose 3.2 g/a
Source text: as §13, §14, §9, §10

[11] = system: common lambsquater; assay: as above; conditions: dose 3.2 g/a
Source text: as §13, §14, §9, §10

[12] = system: common ragweed; assay: as above; conditions: dose 3.2 g/a
Source text: as §13, §14, §9, §10

[13] = system: giant foxtail; assay: as above; conditions: dose 3.2 g/a
Source text: as §13, §14, §9, §10

[14] = system: large crabgrass; assay: as above; conditions: dose 3.2 g/a
Source text: as §13, §14, §9, §10

[15] = system: posumbu knotweed; assay: as above; conditions: dose 3.2 g/a
Source text: as §13, §14, §9, §10

[16] = system: redroot pigweed; assay: as above; conditions: dose 3.2 g/a
Source text: as §13, §14, §9, §10

[17] = system: water foxtail; assay: as above; conditions: dose 3.2 g/a
Source text: as §13, §14, §9, §10

[18] = system: Italian ryegrass; assay: Test Example 4: herbicidal effect in foliage treatment; conditions: dose 3.2 g/a, three weeks after application
Source text: (§15) Test on the Herbicidal Effect in Foliage Treatment
as §14, with “chickweed,” for “chickweed”, “The boxes were placed in a greenhouse at 25 to 30° C. to grow the plants. After 14 days, emulsifiable” for “Emulsifiable”, “foliage” for “soil surfaces”, “diluted” for “dilute”
as §9, §10

[19] = system: barnyardgrass; assay: as above; conditions: dose 3.2 g/a, three weeks after application
Source text: as §15
as §14, with “chickweed,” for “chickweed”, “The boxes were placed in a greenhouse at 25 to 30° C. to grow the plants. After 14 days, emulsifiable” for “Emulsifiable”, “foliage” for “soil surfaces”, “diluted” for “dilute”
as §9, §10

[20] = system: beadstraw; assay: as above; conditions: dose 3.2 g/a, three weeks after application
Source text: as §15
as §14, with “chickweed,” for “chickweed”, “The boxes were placed in a greenhouse at 25 to 30° C. to grow the plants. After 14 days, emulsifiable” for “Emulsifiable”, “foliage” for “soil surfaces”, “diluted” for “dilute”
as §9, §10

[21] = system: common chickweed; assay: as above; conditions: dose 3.2 g/a, three weeks after application
Source text: as §15
as §14, with “chickweed,” for “chickweed”, “The boxes were placed in a greenhouse at 25 to 30° C. to grow the plants. After 14 days, emulsifiable” for “Emulsifiable”, “foliage” for “soil surfaces”, “diluted” for “dilute”
as §9, §10

[22] = system: common lambsquater; assay: as above; conditions: dose 3.2 g/a, three weeks after application
Source text: as §15
as §14, with “chickweed,” for “chickweed”, “The boxes were placed in a greenhouse at 25 to 30° C. to grow the plants. After 14 days, emulsifiable” for “Emulsifiable”, “foliage” for “soil surfaces”, “diluted” for “dilute”
as §9, §10

[23] = system: common ragweed; assay: as above; conditions: dose 3.2 g/a, three weeks after application
Source text: as §15
as §14, with “chickweed,” for “chickweed”, “The boxes were placed in a greenhouse at 25 to 30° C. to grow the plants. After 14 days, emulsifiable” for “Emulsifiable”, “foliage” for “soil surfaces”, “diluted” for “dilute”
as §9, §10

[24] = system: giant foxtail; assay: as above; conditions: dose 3.2 g/a, three weeks after application
Source text: as §15
as §14, with “chickweed,” for “chickweed”, “The boxes were placed in a greenhouse at 25 to 30° C. to grow the plants. After 14 days, emulsifiable” for “Emulsifiable”, “foliage” for “soil surfaces”, “diluted” for “dilute”
as §9, §10

[25] = system: large crabgrass; assay: as above; conditions: dose 3.2 g/a, three weeks after application
Source text: as §15
as §14, with “chickweed,” for “chickweed”, “The boxes were placed in a greenhouse at 25 to 30° C. to grow the plants. After 14 days, emulsifiable” for “Emulsifiable”, “foliage” for “soil surfaces”, “diluted” for “dilute”
as §9, §10

[26] = system: posumbu knotweed; assay: as above; conditions: dose 3.2 g/a, three weeks after application
Source text: as §15
as §14, with “chickweed,” for “chickweed”, “The boxes were placed in a greenhouse at 25 to 30° C. to grow the plants. After 14 days, emulsifiable” for “Emulsifiable”, “foliage” for “soil surfaces”, “diluted” for “dilute”
as §9, §10

[27] = system: redroot pigweed; assay: as above; conditions: dose 3.2 g/a, three weeks after application
Source text: as §15
as §14, with “chickweed,” for “chickweed”, “The boxes were placed in a greenhouse at 25 to 30° C. to grow the plants. After 14 days, emulsifiable” for “Emulsifiable”, “foliage” for “soil surfaces”, “diluted” for “dilute”
as §9, §10

[28] = system: velvetleaf; assay: as above; conditions: dose 3.2 g/a, three weeks after application
Source text: as §15
as §14, with “chickweed,” for “chickweed”, “The boxes were placed in a greenhouse at 25 to 30° C. to grow the plants. After 14 days, emulsifiable” for “Emulsifiable”, “foliage” for “soil surfaces”, “diluted” for “dilute”
as §9, §10

[29] = system: water foxtail; assay: as above; conditions: dose 3.2 g/a, three weeks after application
Source text: as §15
as §14, with “chickweed,” for “chickweed”, “The boxes were placed in a greenhouse at 25 to 30° C. to grow the plants. After 14 days, emulsifiable” for “Emulsifiable”, “foliage” for “soil surfaces”, “diluted” for “dilute”
as §9, §10

SMILES: CC1(C(F)(F)F)CC(=O)N(Cc2ccccc2N(C(=O)C2CC2)S(=O)(=O)C(F)(F)F)CO1 (centres unmarked) [II-48]
- A: barnyardgrass, herbicidal effect (evaluation scale 0-5) [1]: 5 (mortality of 90% or above (nearly complete death))
- B: bulrush, herbicidal effect (evaluation scale 0-5) [2]: 5 (mortality of 90% or above (nearly complete death))
- C: ducksalad, herbicidal effect (evaluation scale 0-5) [3]: 5 (mortality of 90% or above (nearly complete death))
- a: transplanted rice, effect on crop (evaluation scale 0-5) [4]: 0 (mortality of less than 5% (almost ineffective))
- A: barnyardgrass, herbicidal effect (evaluation scale 0-5) [5]: 5 (mortality of 90% or above (nearly complete death))
- B: bulrush, herbicidal effect (evaluation scale 0-5) [6]: 5 (mortality of 90% or above (nearly complete death))
- C: ducksalad, herbicidal effect (evaluation scale 0-5) [7]: 5 (mortality of 90% or above (nearly complete death))
- H: Italian ryegrass, herbicidal effect (evaluation scale 0-5) [8]: 0 (mortality of less than 5% (almost ineffective))
- A: barnyardgrass, herbicidal effect (evaluation scale 0-5) [9]: 5 (mortality of 90% or above (nearly complete death))
- N: common chickweed, herbicidal effect (evaluation scale 0-5) [10]: 4 (mortality of at least 70% and less than 90%)
- L: common lambsquater, herbicidal effect (evaluation scale 0-5) [11]: 0 (mortality of less than 5% (almost ineffective))
- J: common ragweed, herbicidal effect (evaluation scale 0-5) [12]: 4 (mortality of at least 70% and less than 90%)
- E: giant foxtail, herbicidal effect (evaluation scale 0-5) [13]: 4 (mortality of at least 70% and less than 90%)
- D: large crabgrass, herbicidal effect (evaluation scale 0-5) [14]: 5 (mortality of 90% or above (nearly complete death))
- M: posumbu knotweed, herbicidal effect (evaluation scale 0-5) [15]: 3 (mortality of at least 40% and less than 70%)
- K: redroot pigweed, herbicidal effect (evaluation scale 0-5) [16]: 0 (mortality of less than 5% (almost ineffective))
- G: water foxtail, herbicidal effect (evaluation scale 0-5) [17]: 5 (mortality of 90% or above (nearly complete death))
- H: Italian ryegrass, herbicidal effect [18]: 0 (mortality of less than 5% (almost ineffective))
- A: barnyardgrass, herbicidal effect [19]: 4 (mortality of at least 70% and less than 90%)
- O: beadstraw, herbicidal effect [20]: 4 (mortality of at least 70% and less than 90%)
- N: common chickweed, herbicidal effect [21]: 3 (mortality of at least 40% and less than 70%)
- L: common lambsquater, herbicidal effect [22]: 0 (mortality of less than 5% (almost ineffective))
- J: common ragweed, herbicidal effect [23]: 2 (mortality of at least 20% and less than 40%)
- E: giant foxtail, herbicidal effect [24]: 2 (mortality of at least 20% and less than 40%)
- D: large crabgrass, herbicidal effect [25]: 1 (mortality of at least 5% and less than 20%)
- M: posumbu knotweed, herbicidal effect [26]: 2 (mortality of at least 20% and less than 40%)
- K: redroot pigweed, herbicidal effect [27]: 0 (mortality of less than 5% (almost ineffective))
- I: velvetleaf, herbicidal effect [28]: 4 (mortality of at least 70% and less than 90%)
- G: water foxtail, herbicidal effect [29]: 2 (mortality of at least 20% and less than 40%)

Reference: US20120029187A1, “HALOALKYLSULFONANILIDE DERIVATIVE” (Nissan Chemical Industries, Ltd., priority 2009, published 2012)
